Laboratory results reported in PMC3432061, “Biochemical and Mass Spectrometric Characterization of Human N-Acylethanolamine-Hydrolyzing Acid Amidase Inhibition” (PLoS ONE, 2012).

Legend:
FAAH = test system: FAAH; set-up: method as in PMID 22270809; conditions: cited from earlier work
hNAAA [1] = target: T1, hNAAA (Homo sapiens, UniProt Q02083); assay: 8 point radioactive assay, hydrolysis of [14C]N-palmitoylethanolamine by purified hNAAA; assay type: biochemical; conditions: 2 hours preincubation, PEA 25 µM
T1 construct: the active mature form of the enzyme is a heterodimer, consisting of a non-covalent complex of the α- and β-subunits; hexa-histidine (C); made in house; host or cells: HEK293 (stably transfected)
T1 sequence (Q02083 126-359 limits assumed): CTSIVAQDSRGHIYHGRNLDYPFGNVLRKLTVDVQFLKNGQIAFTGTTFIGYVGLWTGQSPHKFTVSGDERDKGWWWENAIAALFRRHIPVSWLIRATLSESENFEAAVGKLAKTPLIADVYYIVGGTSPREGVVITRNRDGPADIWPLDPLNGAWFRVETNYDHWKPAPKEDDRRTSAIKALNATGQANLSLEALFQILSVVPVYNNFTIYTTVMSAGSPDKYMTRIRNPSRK
T1 sequence (Q02083 29-125 limits assumed): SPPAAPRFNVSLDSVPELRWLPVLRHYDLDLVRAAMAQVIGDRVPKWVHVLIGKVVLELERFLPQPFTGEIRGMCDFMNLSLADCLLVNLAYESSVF
Procedure: (§1) To set up 8 point fluorescent and radioactive assays for each point, the compound in 45 µL DMSO and purified activated NAAA (final enzyme concentration of 0.25 µg/mL) in 810 µL of NAAA assay buffer were incubated for 2 hours in order for the covalent compounds to reach full inhibition. For the fluorescent assays, 190 µL of each of the above samples (in triplicate) were transferred to a 96 well plate, followed by addition of 10 µL of a PAMCA stock solution in DMSO for a final PAMCA concentration of 10 µM. After 5 minutes of agitation on a shaking plate, the reaction was allowed to proceed at 37°C for 30 minutes and enzyme activity was monitored and calculated as previously described. The complete description of the novel fluorescent 8 point assay to determine the IC50 value for compounds inhibiting hNAAA activity will be detailed elsewhere.
The 8 point radioactive assays, similar to that described by Saturnino et. al., [10] were performed by taking 95 µL of the enzyme-compound solution described above and adding a 5 µL solution of [^1,2 −14C]N-palmitoylethanolamine (10,000 c.p.m./sample) in DMSO, with a final PEA concentration of 25 µM. The reaction was performed for 30 minutes at 37°C and terminated by addition of 200 µL chloroform/methanol (1∶1, v/v). The aqueous layer containing the [^1,2 −14C]Ethanolamine was quantified by reading with a 1450 Microbeta Walluc Trilux Liquid Scintillation and Luminescence Counter. Inhibition constants were calculated using pro Fit software (Quantum Soft, Uetikon am See, Switzerland) and a Levenberg-Marquardt algorithm.

hNAAA [2] = target: T1, hNAAA; assay: Fluorometric assay to determine kinact/Ki for irreversible hNAAA inhibition; assay type: biochemical; conditions: for kinact: PAMCA 12.4 µM = 2×Km, no preincubation, read for 120 minutes; for kinact/K I: second order rate constant
Procedure: The k inact and K I values for covalent inhibitors were determined similar to Mileni et. al. […] The data for each inhibitor concentration ([I]) were fit to a first order equation (Eq. 1) shown below using KaleidaGraph (Synergy Software, Reading, PA) in order to determine k observed (k obs), where Ft is the fluorescence at time t, F 0 is the fluorescence at t = infinite time, F 1 is the total fluorescence change, and k obs is the first order rate constant for enzyme inactivation. To determine the inhibitor dissociation constant (K I) and the first order rate constant for enzyme inactivation at infinite inhibitor concentration (k inact), the k obs values for each [I] obtained above were fit to a curve using pro Fit software and a Levenberg-Marquardt algorithm according to Eq. 2, which simplifies to Eq. 3 at [S] = 2×K m as used in this experiment. [drawing 1] (1) [drawing 2] (2) [drawing 3] (3)

hNAAA [3] = target: T1, hNAAA; assay: 8 point fluorescent assay, hydrolysis of PAMCA by purified hNAAA; assay type: biochemical; conditions: for IC50: purified hNAAA, 2 hours preincubation, fluorescent assay, PAMCA 10 µM
Procedure: We previously described the fluorogenic substrate N-(4-methyl coumarin)palmitamide (PAMCA), which is hydrolyzed by NAAA to the fluorescent compound 7-amino-4-methyl coumarin (AMC) and palmitic acid. For hNAAA inhibition we conducted three point concentration assays with compounds to determine their potencies and ranges of enzyme inhibition. Purified activated NAAA (final concentration of 0.25 µg/mL) was incubated in assay buffer made up to a total volume of 180 µL, followed by addition of the compound dissolved in 10 µL DMSO (along with DMSO neat for the control sample) with the final concentrations for each compound of 1, 10, and 100 µM, in triplicate on a 96 well plate. These samples were allowed to incubate for 15 min at room temperature and then 10 µL of a PAMCA stock solution in DMSO (final PAMCA concentration 10 µM) was added. After 5 minutes of agitation on a shaking plate, the reaction was allowed to proceed at 37°C for 30 minutes and enzyme activity was monitored and calculated as previously described.
as §1

hNAAA [4] = target: T1, hNAAA; assay: Rapid dilution experiment with hNAAA (reversibility); assay type: biochemical; conditions: AM6701: 100 nM for 120 min, twenty-fold dilution to 5 nM, up to 24 h
hNAAA [5] = target: T1, hNAAA; assay: MALDI-TOF MS and MS/MS analysis of tryptic digest of inhibitor treated hNAAA; conditions: 10-fold molar excess of compound, 37°C, 2 hours, pH 4.5
Procedure: To 10 µg (0.2 nmol) of purified and activated NAAA in 18 µL of 100 mM citrate-sodium phosphate buffer (pH 4.5) 2 µL of a DMSO solution containing 2 nmol of the compound of interest were added or 2 µL DMSO. The inhibitor and DMSO treated enzyme solutions were incubated at 37°C for 2 hours and then desalted prior to digestion. These were desalted by re-concentrating 3 times to original volume after 25 fold dilution with 50 mM ammonium bicarbonate buffer, pH 8.0, using 10 kDa membrane Ultra-0.5 Centrifugal Filters (Millipore). The NAAA samples were incubated overnight at 37°C with MS-grade trypsin (“Trypsin Gold”, Promega) at a NAAA:trypsin mass to mass ratio of 100∶1. The tryptic digested NAAA was analyzed immediately or frozen at −80°C for future analysis.
0.5 µL of the trypsin digested NAAA was mixed with 0.5 µL α-cyano-4-hydroxycinnaminic acid matrix solution (5 mg/mL dissolved in 50% acetonitrile, 50% water, and 0.1% trifluoroacetic acid) and spotted onto an Opti-TOF 384-well plate insert. MALDI-TOF MS spectra were acquired on a 4800 MALDI TOF/TOF mass spectrometer (Applied Biosystems, Foster City, CA) fitted with a 200-Hz solid state UV laser (wavelength 355 nm). The spectra of the peptides were acquired in reflectron mode. The conditions used for the MS experiments and instrument calibration were performed as described by Zvonok et. al.

rFAAH = target: T2, rFAAH (Rattus norvegicus, UniProt P97612); assay: rFAAH inhibition (selectivity); assay type: biochemical
T2 sequence (P97612 1-579): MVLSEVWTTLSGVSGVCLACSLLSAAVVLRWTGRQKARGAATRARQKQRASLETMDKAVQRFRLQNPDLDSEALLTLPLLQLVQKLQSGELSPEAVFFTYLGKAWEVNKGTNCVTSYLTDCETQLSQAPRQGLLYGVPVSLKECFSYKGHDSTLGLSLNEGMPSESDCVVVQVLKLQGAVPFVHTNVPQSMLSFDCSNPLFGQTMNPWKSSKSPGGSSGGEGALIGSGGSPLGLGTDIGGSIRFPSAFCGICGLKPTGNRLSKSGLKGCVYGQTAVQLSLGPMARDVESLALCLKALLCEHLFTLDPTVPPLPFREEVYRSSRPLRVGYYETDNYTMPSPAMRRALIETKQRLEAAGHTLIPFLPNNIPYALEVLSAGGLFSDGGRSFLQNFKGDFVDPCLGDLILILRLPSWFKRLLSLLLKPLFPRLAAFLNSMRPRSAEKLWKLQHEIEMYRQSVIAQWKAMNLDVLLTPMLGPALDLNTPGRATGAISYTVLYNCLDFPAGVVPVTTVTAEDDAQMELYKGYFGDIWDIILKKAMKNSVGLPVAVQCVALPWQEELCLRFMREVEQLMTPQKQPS

hMGL = target: T3, hMGL (Homo sapiens, UniProt Q99685); assay: hMGL inhibition (selectivity); assay type: biochemical
T3 sequence (Q99685 1-303): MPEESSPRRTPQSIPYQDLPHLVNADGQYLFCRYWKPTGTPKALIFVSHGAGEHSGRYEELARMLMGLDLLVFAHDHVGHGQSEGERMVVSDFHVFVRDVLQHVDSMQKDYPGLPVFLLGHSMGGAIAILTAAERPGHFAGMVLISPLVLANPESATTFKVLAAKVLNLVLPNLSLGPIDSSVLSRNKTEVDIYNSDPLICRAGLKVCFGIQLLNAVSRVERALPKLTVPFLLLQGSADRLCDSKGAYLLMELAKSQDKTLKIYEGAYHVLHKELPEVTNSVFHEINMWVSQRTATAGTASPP

hNAAA [6] = target: T1, hNAAA; assay: Lineweaver-Burk (double reciprocal) plot of hNAAA inhibition; assay type: biochemical
recombinant rat NAAA = conditions: substrate heptadecenoylethanolamide, HEK293 cell lysate, LC/MS based assay; cited from earlier work
hNAAA [7] = target: T1, hNAAA; set-up: method as in PMID 22040171; conditions: substrate of hNAAA; cited from earlier work

Structure (SMILES) | IC50 (FAAH) [nM] | IC50 (hNAAA [1]) [nM] | kinact (hNAAA [2]) [s⁻¹] | kinact/K I (hNAAA [2]) [M⁻¹ s⁻¹] | Decrease of IC50 on extension of preincubation time to 120 min (hNAAA [3]; hNAAA, data not presented) | IC50 (hNAAA [3]) [nM] | Recovery of enzyme activity after rapid dilution (hNAAA [4]) | Covalent modification of hNAAA seen by MALDI-TOF MS of tryptic digest (hNAAA [5]) | IC50 (rFAAH) [nM] | IC50 (hMGL) [nM] | Effect of longer pre-incubation on IC50 (hNAAA [3]; hNAAA) | Type of inhibition (Lineweaver-Burk plot) (hNAAA [6]) | IC50 (recombinant rat NAAA) [nM] | Km (hNAAA [7]) [µM]
CN(C)C(=O)n1nnc(Cc2ccc(-c3ccccc3)cc2)n1 [AM6701, 5-((biphenyl-4-yl)methyl)-N,N-dimethyl-2H-tetrazole-2-carboxamide] | 1.2 | 7.2 ± 2.5 | 0.0007 | 55000 | more than 50 fold | 7.7 ± 0.2 | no recovery of enzyme activity | carbamylation of the N-terminal cysteine | – | – | – | – | – | –
CCCCCCCCCCCCCCCN=C=S [AM9023, 1-isothiocyanatopentadecane] | – | 600 ± 130 | – | – | – | 350 ± 70 | fully recovered | identical | > 10000 | > 10000 | unaffected | competitive type inhibitor | – | –
O=C(N[C@H]1COC1=O)OCc1ccccc1 [N-Cbz-serine β-lactone, N-Benzyloxycarbonyl-L-serine β-lactone, reference compound] | – | 1900 ± 500 | 0.000383 | 290 | – | 1700 ± 200 | slow regeneration of enzyme catalytic activity | Cys126 modified by the inhibitor | – | – | – | – | 2960 ± 300 | –
CCCCCCCCCCCCCCCC(=O)Nc1ccc2c(C)cc(=O)oc2c1 [PAMCA, N-(4-methylcoumarin)palmitamide] | – | – | – | – | – | – | – | – | – | – | – | – | – | 6.2
CCCCCCCCCCCCCCCC(=O)NCCO [PEA, N-palmitoylethanolamine] | – | – | – | – | – | – | – | – | – | – | – | – | – | 21
